# Earlier results in patent US20230103631A1, “PEPTIDES AS SELECTIVE GIP RECEPTOR AGONISTS” (Sanofi, priority 2020, published 2023).
# Conditions: in vivo; cited from earlier work
structure (smiles),measurement,value
"CC[C@H](C)[C@H](NC(=O)[C@H](CO)NC(=O)[C@H](Cc1ccc(O)cc1)NC(=O)[C@H](CC(=O)O)NC(=O)[C@H](CO)NC(=O)[C@@H](NC(=O)[C@H](Cc1ccccc1)NC(=O)[C@@H](NC(=O)CNC(=O)[C@H](CCC(=O)O)NC(=O)[C@H](C)NC(=O)[C@@H](N)Cc1ccc(O)cc1)[C@@H](C)O)[C@@H](C)CC)C(=O)N[C@@H](C)C(=O)N[C@@H](CCSC)C(=O)N[C@@H](CC(=O)O)C(=O)N[C@@H](CCCCN)C(=O)N[C@H](C(=O)N[C@@H](Cc1c[nH]cn1)C(=O)N[C@@H](CCC(N)=O)C(=O)N[C@@H](CCC(N)=O)C(=O)N[C@@H](CC(=O)O)C(=O)N[C@@H](Cc1ccccc1)C(=O)N[C@H](C(=O)N[C@@H](CC(N)=O)C(=O)N[C@@H](Cc1c[nH]c2ccccc12)C(=O)N[C@@H](CC(C)C)C(=O)N[C@@H](CC(C)C)C(=O)N[C@@H](C)C(=O)N[C@@H](CCC(N)=O)C(=O)N[C@@H](CCCCN)C(=O)NCC(=O)N[C@@H](CCCCN)C(=O)N[C@@H](CCCCN)C(=O)N[C@@H](CC(N)=O)C(=O)N[C@@H](CC(=O)O)C(=O)N[C@@H](Cc1c[nH]c2ccccc12)C(=O)N[C@@H](CCCCN)C(=O)N[C@@H](Cc1c[nH]cn1)C(=O)N[C@@H](CC(N)=O)C(=O)N[C@H](C(=O)N[C@H](C(=O)N[C@@H](CCC(N)=O)C(=O)O)[C@@H](C)O)[C@@H](C)CC)C(C)C)[C@@H](C)CC [SEQ ID NO: 1, GIP (glucose-dependent insulinotropic polypeptide)]",half-life,2 min
